Data: ChEMBL document CHEMBL1201862, “PubChem BioAssay data set” (2004)
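Test compounds were applied to cells in 96-well plates for 48 hours at 5 doses. GI50 = concentration required for 50% inhibition of growth.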 Active and inactive are the calls of the source. Cut-off read from the data, not from the text of the source: active = GI50 up to about 1.1 µM and inactive = higher.

Key:
Test in all cases: NCI tumour cell line growth inhibition, 48 h
HT-29 = tested on: HT-29
HCT-15 = tested on: HCT-15
HL-60 = tested on: HL-60
SK-MEL-2 = tested on: SK-MEL-2
MOLT-4 = tested on: MOLT-4
OVCAR-3 = tested on: OVCAR-3
K562 = tested on: K562
OVCAR-4 = tested on: OVCAR-4
DU-145 = tested on: DU-145
MDA-MB-435 = tested on: MDA-MB-435
HCT-116 = tested on: HCT-116
OVCAR-5 = tested on: OVCAR-5
NCI-H23 = tested on: NCI-H23
U-251 = tested on: U-251
COLO 205 = tested on: COLO 205
SN12C = tested on: SN12C
SR = tested on: SR
HOP-92 = tested on: HOP-92

SMILES: CN(C)Cc1cc(C(C)(C)C)cc(C2CCCCC2)c1O
- GI50 (HT-29): 2.86 µM (inactive)
- GI50 (HCT-15): 15.3 µM
- GI50 (HL-60): 18.2 µM (inactive)
- GI50 (SK-MEL-2): 18.3 µM (inactive)
- GI50 (MOLT-4): 10.8 µM (inactive)
- GI50 (OVCAR-3): 14.2 µM (inactive)
- GI50 (K562): 12.2 µM (inactive)
- GI50 (OVCAR-4): 12.1 µM (inactive)
- GI50 (DU-145): 14.7 µM (inactive)
- GI50 (MDA-MB-435): 20.3 µM (inactive)
- GI50 (HCT-116): 40.7 µM (inactive)
- GI50 (OVCAR-5): 17 µM (inactive)
- GI50 (NCI-H23): 24.9 µM (inactive)
- GI50 (U-251): 14.4 µM (inactive)
- GI50 (COLO 205): 14.2 µM (inactive)
- GI50 (SN12C): 15.7 µM (inactive)
- GI50 (SR): 12.3 µM (inactive)

SMILES: N=c1oc2cc(O)ccc2cc1C(=O)Nc1cccc2ccccc12
- GI50 (HT-29): 7.6 µM (inactive)
- GI50 (HOP-92): 4.31 µM (inactive)
- GI50 (HCT-15): 2.67 µM
- GI50 (HL-60): 2.11 µM (inactive)
- GI50 (MOLT-4): 2.7 µM (inactive)
- GI50 (OVCAR-3): 7.13 µM (inactive)
- GI50 (K562): 3.33 µM (inactive)
- GI50 (OVCAR-4): 7.01 µM (inactive)
- GI50 (DU-145): 6.53 µM (inactive)
- GI50 (MDA-MB-435): 1.97 µM (inactive)
- GI50 (HCT-116): 3.39 µM (inactive)
- GI50 (OVCAR-5): 13.5 µM (inactive)
- GI50 (NCI-H23): 3.7 µM (inactive)
- GI50 (U-251): 3.53 µM (inactive)
- GI50 (COLO 205): 15.2 µM (inactive)
- GI50 (SN12C): 5.33 µM (inactive)
- GI50 (SR): 1.67 µM (inactive)

SMILES: S=c1nc(N2CCCCC2)c2cn[nH]c2[nH]1
- GI50 (HT-29): 41.8 µM (inactive)
- GI50 (HCT-15): 87.9 µM
- GI50 (HL-60): 19.6 µM (inactive)
- GI50 (SK-MEL-2): 20.1 µM (inactive)
- GI50 (OVCAR-3): 54.8 µM (inactive)
- GI50 (K562): 29.9 µM (inactive)
- GI50 (OVCAR-4): 93.5 µM (inactive)
- GI50 (DU-145): 59.7 µM (inactive)
- GI50 (MDA-MB-435): 46.1 µM (inactive)
- GI50 (HCT-116): 56.6 µM (inactive)
- GI50 (OVCAR-5): > 100 µM (inactive)
- GI50 (NCI-H23): 40.4 µM (inactive)
- GI50 (U-251): 60.5 µM (inactive)
- GI50 (COLO 205): 28.8 µM (inactive)
- GI50 (SN12C): 79.8 µM (inactive)
- GI50 (SR): 14.5 µM (inactive)

SMILES: CCOC(=O)CCC(=O)C1c2cccc(O)c2C(=O)c2c(O)cccc21
- GI50 (HT-29): 2.74 µM (inactive)
- GI50 (HOP-92): 1.49 µM (inactive)
- GI50 (HL-60): 0.223 µM (active)
- GI50 (MOLT-4): 2.31 µM (inactive)
- GI50 (OVCAR-3): 0.942 µM (active)
- GI50 (K562): 0.37 µM (active)
- GI50 (OVCAR-4): 0.611 µM (active)
- GI50 (HCT-116): 1.31 µM (inactive)
- GI50 (OVCAR-5): 1.75 µM (inactive)
- GI50 (NCI-H23): 1.37 µM (inactive)
- GI50 (U-251): 0.301 µM (active)
- GI50 (COLO 205): 2.01 µM (inactive)
- GI50 (SN12C): 1.33 µM (inactive)
- GI50 (SR): 2.24 µM (inactive)

SMILES: CC(C)[Si]1(C(C)C)OCC2OC3(CO)C(Oc4nc(=O)ccn43)C2O[Si](C(C)C)(C(C)C)O1 (stereo not drawn)
- GI50 (HT-29): 12.4 µM (inactive)
- GI50 (HOP-92): 16.5 µM (inactive)
- GI50 (HCT-15): 15 µM
- GI50 (HL-60): 6.17 µM (inactive)
- GI50 (SK-MEL-2): 16.3 µM (inactive)
- GI50 (MOLT-4): 7.55 µM (inactive)
- GI50 (K562): 21 µM (inactive)
- GI50 (OVCAR-4): 13.1 µM (inactive)
- GI50 (DU-145): 14 µM (inactive)
- GI50 (MDA-MB-435): 15 µM (inactive)
- GI50 (HCT-116): 10.9 µM (inactive)
- GI50 (NCI-H23): 15.5 µM (inactive)
- GI50 (U-251): 14.2 µM (inactive)
- GI50 (COLO 205): 9.44 µM (inactive)
- GI50 (SR): 15.5 µM (inactive)

SMILES: COc1ccc2c(c1)C(=O)OCCC2
- GI50 (HT-29): > 100 µM (inactive)
- GI50 (HOP-92): > 100 µM (inactive)
- GI50 (HCT-15): > 100 µM
- GI50 (HL-60): > 100 µM (inactive)
- GI50 (SK-MEL-2): > 100 µM (inactive)
- GI50 (MOLT-4): > 100 µM (inactive)
- GI50 (OVCAR-3): > 100 µM (inactive)
- GI50 (K562): > 100 µM (inactive)
- GI50 (OVCAR-4): > 100 µM (inactive)
- GI50 (DU-145): > 100 µM (inactive)
- GI50 (MDA-MB-435): > 100 µM (inactive)
- GI50 (HCT-116): > 100 µM (inactive)
- GI50 (OVCAR-5): > 100 µM (inactive)
- GI50 (NCI-H23): > 100 µM (inactive)
- GI50 (U-251): > 100 µM (inactive)
- GI50 (COLO 205): > 100 µM (inactive)
- GI50 (SN12C): > 100 µM (inactive)

SMILES: CCOC(=O)c1c(SC)nc(-c2ccc(Cl)cc2)sc1=N.[O-][Cl+3]([O-])([O-])O
- GI50 (HT-29): 25.8 µM (inactive)
- GI50 (HOP-92): 80.2 µM (inactive)
- GI50 (HCT-15): 22.9 µM
- GI50 (HL-60): 35 µM (inactive)
- GI50 (SK-MEL-2): 20.2 µM (inactive)
- GI50 (MOLT-4): 26.4 µM (inactive)
- GI50 (OVCAR-3): 33.2 µM (inactive)
- GI50 (K562): 34.4 µM (inactive)
- GI50 (OVCAR-4): 30.8 µM (inactive)
- GI50 (DU-145): 40.9 µM (inactive)
- GI50 (MDA-MB-435): 34 µM (inactive)
- GI50 (HCT-116): 23.1 µM (inactive)
- GI50 (OVCAR-5): 59.2 µM (inactive)
- GI50 (NCI-H23): 22.6 µM (inactive)
- GI50 (U-251): 37.6 µM (inactive)
- GI50 (COLO 205): 21.8 µM (inactive)
- GI50 (SN12C): 44.4 µM (inactive)
